{"source": "ChEMBL document CHEMBL1145861", "about": "“Selective protein tyrosine phosphatase 1B inhibitors: targeting the second phosphotyrosine binding site with non-carboxylic acid-containing ligands” (J Med Chem, 2003)", "note": "pKd, pKi: −log10 of the molar value."}
{"molecular_target": "not listed separately", "assay": "Inhibitory activity against Leukocyte antigen related Tyrosine Phosphatase (Receptor linked protein tyrosine phosphatase LAR) was determined"}
{"smiles": "CCc1cc(CC(NC(C)=O)C(=O)NCCCCOc2cc(Cl)cc(O)c2C(=O)OC)ccc1N(C(=O)C(=O)O)c1ccccc1C(=O)O", "note": "(stereo not drawn)", "pKi": "< 5.52"}
{"smiles": "C=CCOC(=O)N[C@@H](Cc1ccc(N(C(=O)C(=O)O)c2ccccc2C(=O)O)cc1)C(=O)NCCCCOc1cccc(O)c1C(=O)OC", "pKi": 4.48}
{"molecular_target": "Tyrosine-protein phosphatase non-receptor type 2 (Homo sapiens, UniProt P17706)", "sequence (P17706 whole entry, looked up)": "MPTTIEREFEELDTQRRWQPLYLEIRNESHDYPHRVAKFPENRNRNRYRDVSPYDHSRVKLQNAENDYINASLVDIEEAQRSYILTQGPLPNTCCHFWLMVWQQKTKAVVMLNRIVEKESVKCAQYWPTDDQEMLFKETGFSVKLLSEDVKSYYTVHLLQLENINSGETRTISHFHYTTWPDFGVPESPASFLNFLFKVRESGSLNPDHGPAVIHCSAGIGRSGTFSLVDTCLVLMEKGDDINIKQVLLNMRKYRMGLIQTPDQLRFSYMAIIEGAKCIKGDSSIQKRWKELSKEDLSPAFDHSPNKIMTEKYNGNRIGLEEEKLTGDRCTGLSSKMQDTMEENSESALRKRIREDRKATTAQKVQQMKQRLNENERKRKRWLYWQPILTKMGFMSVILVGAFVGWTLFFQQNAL", "assay": "Inhibitory constant against T cell protein tyrosine phosphatase", "type": "single protein"}
{"smiles": "CCc1cc(CC(NC(C)=O)C(=O)NCCCCOc2cccc(O)c2C(=O)OC)ccc1N(C(=O)C(=O)O)c1ccccc1C(=O)O", "note": "(stereo not drawn)", "pKi": 7.19}
{"smiles": "CCc1cc(CC(NC(C)=O)C(=O)NCCCCOc2cccc(O)c2[N+](=O)[O-])ccc1N(C(=O)C(=O)O)c1ccccc1C(=O)O", "note": "(stereo not drawn)", "pKi": 6.92}
{"smiles": "CCc1cc(CC(NC(C)=O)C(=O)NCCCCOc2ccccc2C(=O)OC)ccc1N(C(=O)C(=O)O)c1ccccc1C(=O)O", "note": "(stereo not drawn)", "pKi": 6.07}
{"smiles": "CCc1cc(CC(NC(C)=O)C(=O)NCCCCOc2cccc(O)c2C(=O)NC)ccc1N(C(=O)C(=O)O)c1ccccc1C(=O)O", "note": "(stereo not drawn)", "pKi": 6.08}
{"smiles": "CCc1cc(CC(NC(C)=O)C(=O)NCCCCOc2cc(Cl)cc(O)c2C(=O)OC)ccc1N(C(=O)C(=O)O)c1ccccc1C(=O)O", "note": "(stereo not drawn)", "pKi": 6.64}
{"smiles": "CCc1cc(CC(NC(C)=O)C(=O)NCCCCOc2cccc(O)c2C(=O)O)ccc1N(C(=O)C(=O)O)c1ccccc1C(=O)O", "note": "(stereo not drawn)", "pKi": 7.14}
{"smiles": "C=CCOC(=O)N[C@@H](Cc1ccc(N(C(=O)C(=O)O)c2ccccc2C(=O)O)cc1)C(=O)NCCCCOc1cccc(O)c1C(=O)OC", "pKi": 6.33}
{"smiles": "NC(=O)[C@H](Cc1ccc(C(F)(F)P(=O)(O)O)cc1)NC(=O)[C@H](CC(=O)O)NC(=O)Cc1ccc(C(F)(F)P(=O)(O)O)cc1", "pKi": 7.62}
{"smiles": "CCc1cc(CC(NC(C)=O)C(=O)NCCCCOc2ccc(-c3ccccc3)c(O)c2C(=O)OC)ccc1N(C(=O)C(=O)O)c1ccccc1C(=O)O", "note": "(stereo not drawn)", "pKi": 6.08}
{"smiles": "CCc1cc(CC(NC(C)=O)C(=O)NCCCCOc2ccc(Br)c(O)c2C(=O)OC)ccc1N(C(=O)C(=O)O)c1ccccc1C(=O)O", "note": "(stereo not drawn)", "pKi": 5.59}
{"molecular_target": "T1, Receptor-type tyrosine-protein phosphatase C (Homo sapiens, UniProt P08575)", "T1 sequence (P08575 whole entry)": "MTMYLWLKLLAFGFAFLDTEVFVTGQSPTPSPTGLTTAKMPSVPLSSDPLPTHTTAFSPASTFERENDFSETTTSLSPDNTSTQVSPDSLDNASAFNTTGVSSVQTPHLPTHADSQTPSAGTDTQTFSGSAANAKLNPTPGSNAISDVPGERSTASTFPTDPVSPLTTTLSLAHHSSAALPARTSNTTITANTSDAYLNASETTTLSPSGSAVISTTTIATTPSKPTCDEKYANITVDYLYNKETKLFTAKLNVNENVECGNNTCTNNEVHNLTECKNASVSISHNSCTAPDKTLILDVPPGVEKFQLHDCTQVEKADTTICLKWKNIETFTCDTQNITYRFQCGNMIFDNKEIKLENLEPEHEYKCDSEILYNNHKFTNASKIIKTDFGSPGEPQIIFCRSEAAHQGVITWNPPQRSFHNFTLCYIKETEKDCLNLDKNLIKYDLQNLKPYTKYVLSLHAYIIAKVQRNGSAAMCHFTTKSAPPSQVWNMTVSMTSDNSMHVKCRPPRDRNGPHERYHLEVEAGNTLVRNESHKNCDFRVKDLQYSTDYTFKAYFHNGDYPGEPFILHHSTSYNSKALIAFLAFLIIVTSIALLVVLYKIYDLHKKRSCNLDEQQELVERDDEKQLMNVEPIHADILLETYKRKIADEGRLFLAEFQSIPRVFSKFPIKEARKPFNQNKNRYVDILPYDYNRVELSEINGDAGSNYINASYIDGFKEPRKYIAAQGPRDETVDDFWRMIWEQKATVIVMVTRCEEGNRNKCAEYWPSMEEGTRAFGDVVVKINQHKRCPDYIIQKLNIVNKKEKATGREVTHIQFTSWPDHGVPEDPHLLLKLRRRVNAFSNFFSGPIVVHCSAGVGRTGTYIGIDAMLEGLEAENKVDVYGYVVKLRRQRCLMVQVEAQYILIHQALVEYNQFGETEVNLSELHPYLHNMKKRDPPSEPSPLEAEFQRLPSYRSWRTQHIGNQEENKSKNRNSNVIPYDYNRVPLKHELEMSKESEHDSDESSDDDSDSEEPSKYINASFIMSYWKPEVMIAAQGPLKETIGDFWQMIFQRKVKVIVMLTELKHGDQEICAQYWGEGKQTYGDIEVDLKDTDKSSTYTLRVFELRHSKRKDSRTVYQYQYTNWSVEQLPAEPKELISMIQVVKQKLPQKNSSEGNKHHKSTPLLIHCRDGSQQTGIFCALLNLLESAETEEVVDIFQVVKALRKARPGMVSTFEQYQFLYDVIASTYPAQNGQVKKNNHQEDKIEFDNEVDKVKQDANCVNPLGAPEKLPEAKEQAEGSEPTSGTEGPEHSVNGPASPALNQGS", "assay": "Inhibitory activity against CD45 tyrosine phosphatase was determined"}
{"smiles": "CCc1cc(CC(NC(C)=O)C(=O)NCCCCOc2cc(Cl)cc(O)c2C(=O)OC)ccc1N(C(=O)C(=O)O)c1ccccc1C(=O)O", "note": "(stereo not drawn)", "pKi": "< 5.52"}
{"smiles": "C=CCOC(=O)N[C@@H](Cc1ccc(N(C(=O)C(=O)O)c2ccccc2C(=O)O)cc1)C(=O)NCCCCOc1cccc(O)c1C(=O)OC", "pKi": "< 3.70"}
{"molecular_target": "T2, Tyrosine-protein phosphatase non-receptor type 1 (Homo sapiens, UniProt P18031)", "T2 sequence (P18031 whole entry)": "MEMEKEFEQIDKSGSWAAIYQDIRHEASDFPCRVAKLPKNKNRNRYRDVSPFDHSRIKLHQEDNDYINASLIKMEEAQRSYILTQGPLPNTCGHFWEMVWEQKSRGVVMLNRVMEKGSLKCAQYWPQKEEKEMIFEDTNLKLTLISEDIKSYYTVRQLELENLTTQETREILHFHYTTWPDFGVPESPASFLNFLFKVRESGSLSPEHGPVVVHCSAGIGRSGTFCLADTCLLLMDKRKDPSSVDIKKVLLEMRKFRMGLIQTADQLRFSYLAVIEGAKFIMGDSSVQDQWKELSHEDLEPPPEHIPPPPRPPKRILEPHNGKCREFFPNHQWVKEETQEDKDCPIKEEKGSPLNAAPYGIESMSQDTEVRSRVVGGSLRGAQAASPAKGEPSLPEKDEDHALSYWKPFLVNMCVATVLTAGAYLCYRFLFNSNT", "assay": "Inhibitory activity against Protein-tyrosine phosphatase 1B (PTP 1B) was determined"}
{"smiles": "CCc1cc(CC(NC(C)=O)C(=O)NCCCCOc2cccc(O)c2[N+](=O)[O-])ccc1N(C(=O)C(=O)O)c1ccccc1C(=O)O", "note": "(stereo not drawn)", "pKi": 6.89}
{"smiles": "CCc1cc(CC(NC(C)=O)C(=O)NCCCCOc2ccccc2C(=O)OC)ccc1N(C(=O)C(=O)O)c1ccccc1C(=O)O", "note": "(stereo not drawn)", "pKi": 5.80}
{"smiles": "CCc1cc(CC(NC(C)=O)C(=O)NCCCCOc2cccc(O)c2C(=O)NC)ccc1N(C(=O)C(=O)O)c1ccccc1C(=O)O", "note": "(stereo not drawn)", "pKi": 6.43}
{"smiles": "CCc1cc(CC(NC(C)=O)C(=O)NCCCCOc2cc(Cl)cc(O)c2C(=O)OC)ccc1N(C(=O)C(=O)O)c1ccccc1C(=O)O", "note": "(stereo not drawn)", "pKi": 7.40}
{"smiles": "CCc1cc(CC(NC(C)=O)C(=O)NCCCCOc2cccc(O)c2C(=O)O)ccc1N(C(=O)C(=O)O)c1ccccc1C(=O)O", "note": "(stereo not drawn)", "pKi": 7.38}
{"smiles": "CCc1cc(CC(NC(C)=O)C(=O)NCCCCOc2ccc(-c3ccccc3)c(O)c2C(=O)OC)ccc1N(C(=O)C(=O)O)c1ccccc1C(=O)O", "note": "(stereo not drawn)", "pKi": 6.25}
{"smiles": "CCc1cc(CC(NC(C)=O)C(=O)NCCCCOc2ccc(Br)c(O)c2C(=O)OC)ccc1N(C(=O)C(=O)O)c1ccccc1C(=O)O", "note": "(stereo not drawn)", "pKi": 6.41}
{"molecular_target": "T3, M-phase inducer phosphatase 3 (Homo sapiens, UniProt P30307)", "T3 sequence (P30307 whole entry)": "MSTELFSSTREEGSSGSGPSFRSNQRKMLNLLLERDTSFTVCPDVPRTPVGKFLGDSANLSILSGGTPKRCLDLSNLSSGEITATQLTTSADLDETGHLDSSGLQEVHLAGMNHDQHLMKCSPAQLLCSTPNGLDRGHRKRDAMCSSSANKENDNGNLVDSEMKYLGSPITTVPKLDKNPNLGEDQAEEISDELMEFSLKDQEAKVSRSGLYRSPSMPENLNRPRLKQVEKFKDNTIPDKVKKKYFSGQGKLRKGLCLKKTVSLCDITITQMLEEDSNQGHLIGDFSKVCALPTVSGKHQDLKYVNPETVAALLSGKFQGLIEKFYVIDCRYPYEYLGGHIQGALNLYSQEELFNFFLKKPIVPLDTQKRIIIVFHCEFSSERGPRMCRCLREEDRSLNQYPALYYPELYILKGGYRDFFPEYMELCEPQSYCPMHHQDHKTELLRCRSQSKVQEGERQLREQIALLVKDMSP", "assay": "Inhibitory activity against cell division cycle 25 degree C (Cdc25 C) was determined"}
{"smiles": "CCc1cc(CC(NC(C)=O)C(=O)NCCCCOc2cc(Cl)cc(O)c2C(=O)OC)ccc1N(C(=O)C(=O)O)c1ccccc1C(=O)O", "note": "(stereo not drawn)", "pKi": "< 5.52"}
{"molecular_target": "T3, M-phase inducer phosphatase 3", "assay": "Inhibitory activity against Cell division cycle 25 degree C was determined"}
{"smiles": "C=CCOC(=O)N[C@@H](Cc1ccc(N(C(=O)C(=O)O)c2ccccc2C(=O)O)cc1)C(=O)NCCCCOc1cccc(O)c1C(=O)OC", "pKi": 3.75}
{"molecular_target": "Protein phosphatase 3 catalytic subunit alpha (Homo sapiens, UniProt Q08209)", "assay": "Inhibitory activity against (calcineurin) was determined"}
{"smiles": "CCc1cc(CC(NC(C)=O)C(=O)NCCCCOc2cc(Cl)cc(O)c2C(=O)OC)ccc1N(C(=O)C(=O)O)c1ccccc1C(=O)O", "note": "(stereo not drawn)", "pKi": "< 5.52"}
{"smiles": "C=CCOC(=O)N[C@@H](Cc1ccc(N(C(=O)C(=O)O)c2ccccc2C(=O)O)cc1)C(=O)NCCCCOc1cccc(O)c1C(=O)OC", "pKi": "< 3.70"}
{"molecular_target": "T2, Tyrosine-protein phosphatase non-receptor type 1", "assay": "Protein-tyrosine phosphatase 1B (PTP 1B) site 2 Ligands were identified using [13C]-labeled protein and their Dissociation Constants were determined"}
{"smiles": "Cc1cc(C)c2nc(C(=O)O)ccc2c1O", "pKd": 1.81}
{"smiles": "N#Cc1cc(C(=O)O)c(O)c(Br)c1N", "pKd": 3.04}
{"smiles": "Nc1ccc(C(=O)O)c(O)c1", "note": "[AMINOSALICYLIC ACID]", "pKd": 2.92}
